ChEMBL document CHEMBL5096191 (J Med Chem, 2021)

Assays:
Type in all cases: functional, cell-based
[1] = molecular target: T1, Cannabinoid receptor 2 (Homo sapiens, UniProt P34972); test: (§1) Positive allosteric modulation of JWH-133-induced agonist activity at wild type CB2 receptor (unknown origin) stably expressed in HEK293T cells assessed as inhibition of forskolin-stimulated cAMP levels preincubated for 15 mins followed by forskolin addition incubated for 15 mins by HTRF assay
[2] = molecular target: T1, Cannabinoid receptor 2; test: as §1, with “assay relative to control” for “assay”; conditions: filed as positive allosteric modulator, time 30.0 min
[3] = molecular target: T1, Cannabinoid receptor 2; test: Negative allosteric modulation of JWH-133-induced agonist activity at wild type CB2 receptor (unknown origin) stably expressed in HEK293T cells assessed as decrease in cAMP levels preincubated for 15 mins followed by forskolin addition incubated for 15 mins by HTRF assay relative to JWH-133; conditions: time 30.0 min
[4] = molecular target: T1, Cannabinoid receptor 2; test: Partial agonist activity at wild type CB2 receptor (unknown origin) expressed in HEK293T assessed as increase in picometer shifts of reflected light wavelengths by DMR assay relative to control; conditions: filed as partial agonist
[5] = system: Cannabinoid receptor 2 (Homo sapiens), P34972 [V113M]; test: Partial agonist activity at CBR2 V1133.32M mutant (unknown origin) stably expressed in HEK293T assessed as decrease in forskolin induced cAMP level preincubated for 15 mins followed by forskolin addition incubated for 15 mins by HTRF assay relative to control; conditions: filed as partial agonist, time 30.0 min
[6] = molecular target: T1, Cannabinoid receptor 2; test: Partial agonist activity at wild type CB2 receptor (unknown origin) stably expressed in HEK293T assessed as decrease in forskolin induced cAMP level preincubated for 15 mins followed by forskolin addition incubated for 15 mins by HTRF assay relative to control; conditions: filed as partial agonist, time 30.0 min
[7] = system: Cannabinoid receptor 2 (Homo sapiens), P34972 [V113M]; test: Partial agonist activity at CBR2 V1133.32M mutant (unknown origin) expressed in HEK293T assessed as increase in picometer shifts of reflected light wavelengths by DMR assay relative to control
[8] = molecular target: T1, Cannabinoid receptor 2; test: Partial agonist activity at wild type CB2 receptor (unknown origin) expressed in HEK293T assessed as increase in ERK1/2 phosphorylation incubated for 7 mins by AlphaScreenSureFire method relative to control; conditions: filed as partial agonist
[9] = system: Cannabinoid receptor 2 (Homo sapiens), P34972 [V113M]; test: Partial agonist activity at CBR2 V1133.32M mutant (unknown origin) expressed in HEK293T assessed as increase in ERK1/2 phosphorylation incubated for 7 mins by AlphaScreenSureFire method relative to control; conditions: filed as partial agonist
[10] = molecular target: T1, Cannabinoid receptor 2; test: Positive allosteric modulation of JWH-133-induced agonist activity at wild type CB2 receptor (unknown origin) stably expressed in HEK293T cells assessed as decrease in cAMP levels preincubated for 15 mins followed by forskolin addition incubated for 15 mins by HTRF assay relative to JWH-133; conditions: filed as positive allosteric modulator, time 30.0 min

T1 sequence (P34972 whole entry): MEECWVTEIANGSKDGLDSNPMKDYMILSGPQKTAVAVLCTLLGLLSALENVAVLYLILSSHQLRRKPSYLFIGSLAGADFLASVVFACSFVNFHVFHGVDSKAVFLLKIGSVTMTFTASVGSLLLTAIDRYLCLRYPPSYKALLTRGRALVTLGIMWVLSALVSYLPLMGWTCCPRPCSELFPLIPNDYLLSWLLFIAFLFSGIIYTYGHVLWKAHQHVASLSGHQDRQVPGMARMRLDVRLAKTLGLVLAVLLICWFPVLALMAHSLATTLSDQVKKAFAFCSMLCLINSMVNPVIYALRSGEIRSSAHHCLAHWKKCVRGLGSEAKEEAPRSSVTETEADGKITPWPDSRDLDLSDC
Sequence of Cannabinoid receptor 2 (Homo sapiens), P34972 [V113M] (P34972 whole entry V113M): as the sequence (P34972 whole entry) above, with V113M counted along it

C=C(C)[C@@H]1CCC(C)=C[C@H]1c1c(O)cc(CCCC)cc1O
EC50 [1]: 200 nM | Emax [2]: 64.1% | %max ([3]; filed as negative allosteric modulator): 82%

C=C(C)[C@@H]1CCC(C)=C[C@H]1c1c(O)cc(CCCCC)cc1O
Emax [4]: 49.1% | Emax [2]: 67.8% | Emax [5]: 89.1% | Emax [6]: 74% | Emax [7]: 5.3% | Emax [8]: 156% | Emax [9]: 186%

C=C(C)[C@@H]1CCC(C)=C[C@H]1c1c(O)cc(CCCCCC)cc1O
EC50 [1]: 126 nM | Emax [2]: 83.5% | %max [3]: 38%

C=C(C)[C@@H]1CCC(C)=C[C@H]1c1c(O)cc(CC)cc1O
EC50 [1]: 31.6 nM | Emax [2]: 45.3% | %max [10]: 124%

C=C(C)[C@@H]1CCC(C)=C[C@H]1c1c(O)cc(CCC)cc1O [CANNABIDIVARIN]
EC50 [1]: 12.6 nM | Emax [2]: 48% | %max [10]: 118%
